Measurements from patent US20240415152A1, “METHODS FOR IMPROVING HEALTH OF FISH, USE OF ZINC OXIDE PARTICLES FOR THE PREPARATION OF FISH FEED, METHODS FOR PREPARING FISH FEED FOR FISH, AND FISH FEED THEREOF” (City University of Hong Kong, priority 2023, published 2024).

Columns and labels:
Assay type in all cases: in vivo, Trachinotus ovatus
Conditions in all cases: dietary 60 mg/kg, 5 weeks
golden pompano = assay: Growth performance (final weight, weight gain rate) after 5-week dietary exposure
Description: Fish exposure experiments were conducted in strict accordance with the Chinese Guidelines for Ethical Review of Laboratory Animal Welfare (GBIT 35892-2018). Three groups of golden pompanos (initial body wet weight of about 6 g) were randomly chosen and split after 14 days of acclimatization. There were three replicated net cages in Mirs Bay (Nanao, Shenzhen, China) for each group, with 30 fish in each duplicate. Each day, the experimental meals were given two-time (8:00 h, and 16:00 h) to golden pompano until satiation during the 5-week exposure experiment. The water was 29-32° C., dissolved oxygen 6.8-7.2 mg/L, and salinity 28-30‰ during dietary exposure.
After dietary exposure, all fish were starved for 24 h, and the ice-water was used to anesthetize fish from different groups. To avoid sample contamination during sampling, we first thoroughly disinfected the sampling table with 75% alcohol, and then spread a disposable tablecloth and disinfected it twice. All metal dissection tools were high-temperature sterilization. Each treatment group shared one set of dissection tools. After each set of samples, the disposable tablecloth was replaced and thoroughly sterilized for the following group sampling. The tubes (sterile and enzyme-free) for the temporary storage of samples were purchased from Corning. […] Fish's weights were measured immediately. […]

[1] = test system: intestinal microorganism of golden pompano; assay: Bacterial 16S ribosomal RNA gene sequencing of intestine content (ASV-based)
From the text: DNA samples from the intestine content (only mucosa without the muscularis) were isolated using the MP Fast® SPIN DNA Kit. Each replicated sample contained 6 fish, resulting in 18 fish per treatment group. DNA extracts were amplified using primers (338F_806R) for the V3-V4 region of the 16S rRNA gene. Procedures for the DNA extracts and PCR amplification and then illuminma Miseq sequencing are described as follows.
DNA extraction and PCR amplification: The quality of DNA extraction was determined using 1% agarose gel electrophoresis, and DNA concentration and purity were determined using NanoDrop2000. […] The 16S rRNA gene V3-V4 variable region was amplified by PCR using 338F (5′-[…]-3′) and 806R (5′-[…]-3′). The amplification procedure was as follows: 95° C. pre-denaturation for 3 min, 27 cycles (95° C. denaturation for 30 s, 55° C. annealing for 30 s, 72° C. extension for 30 s), followed by 72° C. stable extension for 10 min and finally storage at 4° C. (PCR instrument: ABI GeneAmp® Model 9700). FastPfu buffer 4 μL, 2.5 mM dNTPs 2 μL, upstream primer (5 uM) 0.8 μL, downstream primer (5 uM) 0.8 μL, TransStart FastPfu DNA polymerase 0.4 μL, template DNA 10 ng, ddH2O make up to 20 μL. 3 replicates for each sample.
Illumina Miseq sequencing: PCR products from the same sample were mixed and recovered using a 2% agarose gel. Fluorometer (Promega, USA) was used to quantify the recovered products. Library construction was performed using NEXTflex™ Rapid DNA-Seq Kit (Bioo Scientific, USA): (1) splice linkage; (2) removal of splice self-linked fragments using magnetic bead screening; (3) enrichment of library template using PCR amplification; (4) recovery of PCR products by magnetic beads to obtain the final library. Sequencing was performed using Illumina's Miseq PE300 platform (Shanghai Meiji Biomedical Technology Co., Ltd.).
For Illumina Miseq PE300, products were pooled by sequencing equimolar and paired-end sequences (2×300) to obtain the raw data. Please see description for raw data stitching and optimization. After the PE reads obtained by MiSeq sequencing were split, the double-ended reads were first quality controlled and filtered according to the sequencing quality. Meanwhile, according to the overlapping relationship between double-ended reads, the optimized data after quality control splicing were obtained. […]
Raw data stitching and optimization: Fastp (version 0.20.0) software was used for quality control of the original sequencing sequence, and flash was used (version 1.2.7) software for splicing: (1) filter the bases with a mass value of less than 20 at the tail of reads and set a 50 bp window. […]

[2] = test system: intestinal tissue of fish; assay: In situ spatial quantitative analysis of intestinal tissue (HE sections, tissue cytometry)
Description: After dietary exposure, all fish were starved for 24 h, and the ice-water was used to anesthetize fish from different groups. To avoid sample contamination during sampling, we first thoroughly disinfected the sampling table with 75% alcohol, and then spread a disposable tablecloth and disinfected it twice. All metal dissection tools were high-temperature sterilization. Each treatment group shared one set of dissection tools. After each set of samples, the disposable tablecloth was replaced and thoroughly sterilized for the following group sampling. The tubes (sterile and enzyme-free) for the temporary storage of samples were purchased from Corning. Inc. The alcohol lamp was kept on throughout the sampling process. Fish's weights were measured immediately. All individual fish per net were swabbed using 75% alcohol. After that, we used a 1 mL disposable syringe to collect the blood from the caudal vertebra of the fish. The blood was quickly drawn into the pre-cooled 1.5 mL-centrifuge tubes (RNA-free tube). Then, all the blood samples were put in the 4° C. refrigerator for 24 h, and then centrifuged (4° C., 3000 r/min, 10 min) to obtain the serum samples for biochemical analysis. The blood-drawn fish were quickly dissected to obtain the gill, intestine content, intestine, liver, and muscle. Each replicated sample contained 6 fish, resulting in 18 fish per treatment group (with 3 replicates). All these samples were immediately frozen in liquid nitrogen and transferred to −80° C. refrigerator using dry ice, except the intestine for histomorphological study. For histomorphological analysis of the intestine, the tissues (3 fish per treatment group) were firstly dissected in the medical ice sheet. After 0.9% NaCl solution quick washing, the intestine tissues were fixed in the 4% paraformaldehyde (BL539A, Biosharp) for 48 h. The fixed intestinal samples were carefully transferred to 75% alcohol for long-term preservation.
The fixed intestine tissues were removed from the fixed liquid and then carefully trimmed with the ventilation cupboard. The trimmed tissues with different labels were placed in the dehydration box in the dehydrator (Donatello, DIAPATH) to dehydrate with gradient alcohol. The process was as follows: 75% alcohol 4 h, 85% alcohol 2 h, 90% alcohol 2 h, 95% alcohol 1 h, anhydrous ethanol I 30 min, anhydrous ethanol II 30 min, alcohol benzene 5˜10 min, xylene II 5˜10 min, 65° C. melting paraffin I1 h, 65° C. melting paraffin II 1 h, 65° C. melting paraffin Ill 1 h. The tissues were removed from the dehydration box and placed in the embedding frame of the embedding machine (JB-P5, Wuhan Junjie Electronics Co., Ltd), subsequently the frozen platform at −20° C. was used to cool the dewatering box. The solidified wax block was removed from the embedded frame and placed on the pathology slicer (RM2016, Shanghai Leica Instrument Co., Ltd) to obtain 4 μm slice thickness. The tissues were then flattened when the slice floated on the 40° C. warm water of the spreading machine. […]
In situ spatial quantitative identification of HE sections were imaged and analyzed by tissue cytometry. Briefly, the images were obtained on the TissueFAXS quantitative imaging system (TissueGnostics, Vienna, Austria). […] The scanned files were imported into the strataquest professional organization single-cell quantitative analysis system (v.7.0.1.176) for image processing and analysis. […]

## O=S(=O)([O-])[O-].[Zn+2] [ZnSO4, zinc sulphate]
Golden pompano
  WGR (weight gain rate): 268.78%
Golden pompano; initial body wet weight about 6 g
  final weight: 22.30 g
[1]
  genus-level differential microorganisms in fish intestine: significantly enriched Photobacterium and Mycoplasma
  main intestinal microorganisms at phylum level: Proteobacteria, Firmicutes and Cyanobacteria
  unique reads of microorganisms at ASV level (Venn diagram): 808
  unique reads of microorganisms at genus level (Venn diagram): 137
[2]
  intestinal villus area: reduced
  villus height distribution (changes in the fish villi intestine): 0.05-0.33 μm
[2]; compared with the other groups
  area of basal layer of fish intestine: reduced
  total number of goblet cells: reduced
  villus/crypt ratio (intestinal/crypt ratio): reduced
